According to ChEMBL document CHEMBL3399981, “Novel neurotrophic phenylbutenoids from Indonesian ginger Bangle, Zingiber purpureum” (Bioorg Med Chem Lett, 2015):
Activity calls are given as the source filed them. The rule behind the calls is not given here.

What was measured:
PC-12 [1] = experiment: Neuritogenic activity in rat PC12 cells assessed as neurite outgrowth at 1 to 30 uM after 4 days by phase-contrast microscopy in presence of 2 ng/ml NGF; format: functional, cell-based
PC-12 [2] = experiment: Neuritogenic activity in rat PC12 cells assessed as neurite outgrowth at 30 uM after 4 days by phase-contrast microscopy; format: functional, cell-based
[3] = molecular target: Amyloid-beta precursor protein (Homo sapiens) (UniProt P05067); experiment: Inhibition of beta-sheet formation in amyloid beta-42 (unknown origin) assessed as decrease in ThT fluorescence at 50 uM after 1 hr by spectrophotometric plate reader
Amyloid-beta precursor protein (Homo sapiens), sequence (P05067 whole entry): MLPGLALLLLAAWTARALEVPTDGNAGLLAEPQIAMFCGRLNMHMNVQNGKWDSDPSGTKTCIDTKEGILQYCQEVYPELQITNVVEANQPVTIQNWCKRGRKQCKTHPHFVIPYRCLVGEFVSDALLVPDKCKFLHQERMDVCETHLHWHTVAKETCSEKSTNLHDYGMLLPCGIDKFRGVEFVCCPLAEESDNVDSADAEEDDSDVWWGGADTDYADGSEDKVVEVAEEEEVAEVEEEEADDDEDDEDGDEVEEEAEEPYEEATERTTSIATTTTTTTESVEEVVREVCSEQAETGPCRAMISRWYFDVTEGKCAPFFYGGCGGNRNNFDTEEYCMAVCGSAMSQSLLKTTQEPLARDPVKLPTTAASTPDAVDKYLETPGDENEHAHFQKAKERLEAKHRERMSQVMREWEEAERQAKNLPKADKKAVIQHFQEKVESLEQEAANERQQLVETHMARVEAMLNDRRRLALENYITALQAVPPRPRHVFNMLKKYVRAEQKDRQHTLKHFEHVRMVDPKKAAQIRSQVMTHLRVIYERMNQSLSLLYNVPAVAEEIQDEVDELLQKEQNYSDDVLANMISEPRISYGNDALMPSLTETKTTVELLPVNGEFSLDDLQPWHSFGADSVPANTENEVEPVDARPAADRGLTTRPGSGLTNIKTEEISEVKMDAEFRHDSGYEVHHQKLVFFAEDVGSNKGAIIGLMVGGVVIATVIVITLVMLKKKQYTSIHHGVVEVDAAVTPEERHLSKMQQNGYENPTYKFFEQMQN

[4] = molecular target: Amyloid-beta precursor protein (Homo sapiens) (UniProt P05067); experiment: Inhibition of beta-sheet formation in amyloid beta-42 (unknown origin) assessed as decrease in ThT fluorescence after 1 hr by spectrophotometric plate reader
PC-12 [5] = experiment: Neuritogenic activity in rat PC12 cells assessed as neurite outgrowth at 1 uM after 4 days by phase-contrast microscopy in presence of 2 ng/ml NGF; format: functional, cell-based
[6] = Toxicity in rat PC12 cells at > 30 uM after 4 days by phase-contrast microscopy in presence of 2 ng/ml NGF; format: cell-based; conditions: pc-12, 96 h
PC-12 [7] = experiment: Neuritogenic activity in rat PC12 cells assessed as neurite outgrowth after 4 days by phase-contrast microscopy in presence of 2 ng/ml NGF; format: functional, cell-based
PC-12 [8] = experiment: Neuritogenic activity in rat PC12 cells assessed as neurite outgrowth at 10 uM after 4 days by phase-contrast microscopy in presence of 2 ng/ml NGF; format: functional, cell-based
[9] = Toxicity in rat PC12 cells at > 10 uM after 4 days by phase-contrast microscopy in presence of 2 ng/ml NGF; format: cell-based; conditions: pc-12, 96 h

inhibition [3] [%] | inhibition [4] | SMILES | Activity (PC-12 [1]) | Activity (PC-12 [2]) | Activity (PC-12 [5]) | Activity [6] | Activity (PC-12 [7]) | Activity (PC-12 [8]) | Activity [9]
 |  | COc1ccc([C@H]2[C@H](CCO)CC=C[C@@H]2c2ccc(OC)c(OC)c2)cc1OC | inactive |  |  |  |  |  | 
59.6 | Dose-dependent effect | COc1ccc(/C=C/[C@H]2CCC=C[C@@H]2c2ccc(OC)c(OC)c2)cc1OC |  | Active |  |  |  |  | 
 |  | COc1cc(/C=C/C(=O)C2(C(=O)/C=C/c3ccc(O)c(OC)c3)CCC=C[C@@H]2c2cc(OC)c(OC)cc2OC)ccc1O |  |  | Active | Toxic | Dose-dependent effect | Active | 
18.9 | Dose-dependent effect | COc1cc(/C=C/C(=O)C2(C(=O)/C=C/c3ccc(O)c(OC)c3)CCC=C[C@@H]2c2ccc(OC)c(OC)c2)ccc1O |  |  | Active |  | Dose-dependent effect |  | Toxic
